Results reported in patent US20240260575A1, “AGRICULTURAL AND HORTICULTURAL FUNGICIDAL COMPOSITION” (Nippon Soda Co., Ltd., priority 2021, published 2024).

Columns and labels:
[1] = test system: cucumber powdery mildew pathogen (Sphaerotheca fuliginea); test: Cucumber powdery mildew control test; type: in vivo; design: scale not given here
Description: (Test Example) Cucumber Powdery Mildew Control Test 1) Preparation of Drug Solution for Test […] The other components (II) were each formulated into an aqueous solution or suspension having a predetermined concentration. 2) Test A mixed solution of a component (I) and a component (II) at a predetermined concentration was sprayed onto cucumber seedlings (variety: “Shimo-shirazu, creeping type”, cotyledon stage). After natural drying at room temperature, conidiospores of a cucumber powdery mildew pathogen (Sphaerotheca fuliginea) were inoculated by blushing off, and the seedlings were kept in a thermostatic room at 20° C. using a 12 hour light/dark cycle for 7 to 10 days. The states of lesion development on leaves were examined by comparing with that for the untreated case, and the control values were determined. The test was duplicately carried out. The results are shown in Tables 8 to 12 together with expected values calculated as follows. Expected values were calculated by using Colby's equation: […] Here, E denotes an expected value of a control value, M denotes a control value in using a component (I) alone, and N denotes a control value in using a component (II) alone. If the actually measured control value of a composition of a component (I) and a component (II) is higher than the expected value, E, the composition of a component (I) and a component (II) is said to have exerted synergistic effect.

[2] = test system: gray mold pathogen (Botrytis cinerea); test: Gray mold antimicrobial test (growth inhibition rate); type: cell-based; design: growth inhibition rate, component (II) alone: concentration or dose not given beside the values
Protocol: (Test Example) Gray Mold Antimicrobial Test (Growth Inhibition Rate)
Conidiospores of a gray mold pathogen (Botrytis cinerea) were added to and dispersed in a yeast extract sucrose medium, and a component (I) and a component (II) dissolved in dimethyl sulfoxide at predetermined concentrations were further added and mixed thereto, and the resulting solution was dispensed onto a 96-well microplate and cultivated in the dark at 20° C. for 3 to 5 days. After the cultivation, the turbidity at a wavelength of 405 nm was measured by a microplate reader and compared with that in the untreated case to determine the growth inhibition rate (%) for the gray mold pathogen. The test was duplicately carried out. The results are shown in Tables 3 to 7 together with expected values calculated as follows.
Expected values were calculated by using Colby's equation: E=M+N−MN/100. Here, E denotes an expected value (%) of a growth inhibition rate, M denotes a growth inhibition rate (%) in using a component (I) alone, and N denotes a growth inhibition rate (%) in using a component (II) alone.
If the actually measured growth inhibition rate (%) of a composition of a component (I) and a component (II) is higher than the expected value, E, the composition of a component (I) and a component (II) is said to have exerted synergistic effect.

[3] = Table 8, ppm or dilution rate: Thiophanate-methyl 1.6, Triflumizole 25, Cyflufenamid 1.6, Iminoctadine acetate 0.25, Iminoctadine albesilate 1, Picarbutrazox 2000, Ipflufenoquin 1, Bacillus subtilis ×250, Pseudomonas rhodesiae ×2000, Sodium hydrogen carbonate 250, Potassium bicarbonate 250, Orange oil 4000, Linalool 4000, Thymol 100, Neem oil 2000, Prothioconazole 1.6, Mancozeb 63, Mineral oil 500
[4] = Table 9, ppm or dilution rate: Thiophanate-methyl 1.6, Triflumizole 25, Cyflufenamid 1.6, Iminoctadine acetate 0.25, Iminoctadine albesilate 1, Picarbutrazox 2000, Ipflufenoquin 1, Bacillus subtilis ×250, Pseudomonas rhodesiae ×2000, Sodium hydrogen carbonate 250, Potassium bicarbonate 250, Orange oil 1000, Linalool 4000, Thymol 100, Neem oil 2000, Prothioconazole 1.6, Mancozeb 63, Mineral oil 500
[5] = Table 10, ppm or dilution rate: Thiophanate-methyl 1.6, Triflumizole 25, Cyflufenamid 1.6, Iminoctadine acetate 0.25, Iminoctadine albesilate 1, Picarbutrazox 2000, Ipflufenoquin 1, Bacillus subtilis ×1000, Pseudomonas rhodesiae ×2000, Sodium hydrogen carbonate 250, Potassium bicarbonate 250, Orange oil 1000, Linalool 4000, Thymol 100, Neem oil 2000, Prothioconazole 1.6, Mancozeb 63, Mineral oil 5
[6] = Table 11, ppm or dilution rate: Thiophanate-methyl 1.6, Triflumizole 25, Cyflufenamid 1.6, Iminoctadine acetate 1, Iminoctadine albesilate 1, Picarbutrazox 2000, Ipflufenoquin 1, Bacillus subtilis ×1000, Pseudomonas rhodesiae ×2000, Sodium hydrogen carbonate 250, Potassium bicarbonate 250, Orange oil 1000, Linalool 4000, Thymol 100, Neem oil 2000, Prothioconazole 1.6, Mancozeb 63, Mineral oil 500
[7] = Table 12, ppm or dilution rate: Thiophanate-methyl 1.6, Triflumizole 25, Cyflufenamid 1.6, Iminoctadine acetate 0.25, Iminoctadine albesilate 1, Picarbutrazox 2000, Ipflufenoquin 1, Bacillus subtilis ×1000, Pseudomonas rhodesiae ×2000, Sodium hydrogen carbonate 1000, Potassium bicarbonate 250, Orange oil 1000, Linalool 4000, Thymol 400, Neem oil 2000, Prothioconazole 1.6, Mancozeb 63, Mineral oil
[8] = Table 3, ppm: Ipflufenoquin 10, Cyflufenamid 10, Thiophamate-methyl 0.4, Iminoctadine acetate 0.08, Iminoctadine albesilate 0.08, Triflumizole 0.0032, Picarbutrazox 0.08, Prothioconazole 0.0032, Mefentrifluconazole 0.00064, Cymoxanil 10, Fludioxonil 0.016, Metyltetraprole 0.4, Florylpicoxamid 0.08, Fluxapyroxad 0.08, Fluopyram 0.4, Potassium phosphite 10, Fipronil 2, Chlorantraniliprole 0.016, Aba
[9] = Table 4, ppm: Ipflufenoquin 10, Cyflufenamid 2, Thiophamate-methyl 0.4, Iminoctadine acetate 0.08, Iminoctadine albesilate 0.4, Picarbutrazox 10, Prothioconazole 0.0032, Mefentrifluconazole 0.0006, Cymoxanil 10, Fludioxonil 0.016, Metyltetraprole 10, Fluxapyroxad 0.016, Fluopyram 0.4, Potassium phosphite 10, Fipronil 2, Chlorantraniliprole 0.016, Abamectin 0.016, Sulfoxaflor 10, Tebufenozide 0.016
[10] = Table 5, ppm: Ipflufenoquin 10, Cyflufenamid 10, Thiophamate-methyl 0.4, Iminoctadine albesilate 0.4, Picarbutrazox 0.0032, Mefentrifluconazole 0.0006, Cymoxanil 10, Captan 0.0032, Fludioxonil 0.016, Metyltetraprole 10, Florylpicoxamid 0.0001, Fluxapyroxad 0.016, Fluopyram 0.0032, Potassium phosphite 0.08, Fipronil 2, Chlorantraniliprole 0.016, Abamectin 0.4, Sulfoxaflor 0.4, Tebufenozide 10
[11] = Table 6, ppm: Ipflufenoquin 10, Cyflufenamid 0.08, Thiophamate-methyl 2, Triflumizole 0.08, Picarbutrazox 0.0016, Prothioconazole 0.0006, Mefentrifluconazole 0.08, Cymoxanil 0.08, Captan 0.08, Fludioxonil 0.016, Metyltetraprole 10, Florylpicoxamid 0.0006, Fluxapyroxad 0.0032, Fluopyram 0.016, Potassium phosphite 0.016, Fipronil 10, Chlorantraniliprole 0.08, Abamectin 2, Sulfoxaflor 0.08, Tebufenoz
[12] = Table 7, ppm: Ipflufenoquin 0.08, Cyflufenamid 0.08, Thiophamate-methyl 2, Iminoctadine acetate 0.0001, Iminoctadine albesilate 0.4, Triflumizole 0.4, Prothioconazole 0.0032, Mefentrifluconazole 0.08, Cymoxanil 0.08, Captan 0.08, Fludioxonil 0.08, Metyltetraprole 0.0032, Florylpicoxamid 0.0006, Fluxapyroxad 0.016, Fluopyram 0.0032, Potassium phosphite 0.016, Fipronil 2, Chlorantraniliprole 0.016

Molecule	control value, component (II) alone [1, 3]	control value, component (II) alone [1, 4]	control value, component (II) alone [1, 5]	control value, component (II) alone [1, 6]	control value, component (II) alone [1, 7]	growth inhibition rate, component (II) alone [2, 8] [%]	growth inhibition rate, component (II) alone [2, 9] [%]	growth inhibition rate, component (II) alone [2, 10] [%]	growth inhibition rate, component (II) alone [2, 11] [%]	growth inhibition rate, component (II) alone [2, 12] [%]
COC(=O)NC(=S)Nc1ccccc1NC(=S)NC(=O)OC [Thiophanate-methyl]	83	83	0	67	17					
CC(O)(Cn1cncn1)c1ccc(Oc2ccc(Cl)cc2)cc1C(F)(F)F (centres unmarked) [Mefentrifluconazole]						0	0	48	37	34
C=CC(C)(O)CCC=C(C)C (centres unmarked) [Linalool]	27	27	17	17	27					
Cc1ccc(C(C)C)c(O)c1 [Thymol]	17	17	17	17	50					
Cc1cccc(-n2nnn(C)c2=O)c1COc1ccn(-c2ccc(Cl)cc2)n1 [Metyltetraprole]						0	52	33	33	0
Cn1cc(C(=O)Nc2ccccc2-c2cc(F)c(F)c(F)c2)c(C(F)F)n1 [Fluxapyroxad]						8	10	10	10	11
Mancozeb	17	17	17	17	17					
COc1ccnc(C(=O)N[C@@H](C)C(=O)O[C@@H](C)C(c2ccc(F)cc2)c2ccc(F)cc2)c1OC(C)=O [Florylpicoxamid]						13		0	8	6
Potassium phosphite						0	0	0	1	12
OC(Cc1ccccc1Cl)(Cn1nc[nH]c1=S)C1(Cl)CC1 (centres unmarked) [Prothioconazole]	50	0	17	0	0					
O=C(Cc1ccccc1)N/C(=N\OCC1CC1)c1c(C(F)(F)F)ccc(F)c1F [Cyflufenamid]	50	50	50	50	50					
Abamectin						0	0	64	12	0
CCCOC/C(=N\c1ccc(Cl)cc1C(F)(F)F)n1ccnc1 [Triflumizole]	27	27	27	27	27					
O=C([O-])O.[K+] [Potassium bicarbonate]	64	64	17	64	64					
O=C([O-])O.[Na+] [Sodium hydrogen carbonate]	33	33	33	33	33					
